Data set [1] in a line: Stability in solution by UV-vis spectrophotometry. It counts as physicochemical. The settings on record: c = 25 μM, spectra every 4 h for 72 h. As for the experimental part: The stability of Cu1a-d and Cu2a-d was assessed using a spectrophotometric method. Absorption spectra of the Cu(II) complexes were collected every 4 h for 72 h in DMSO and phosphate-buffered saline (PBS) solutions (c = 25 μM) (see Figure S6 and Table S9 in ESI). The diluted solutions in a water-based medium were prepared from concentrated (50 mM) stock solutions in DMSO. […] In contrast, Cu(II) complexes with dtpy-based ligands (Cu2a–d) decomposed within a few minutes in DMSO, showing UV–vis spectra almost overlapping with those of the free ligands (Figure S7). […] In PBS, compounds Cu2a–d tended to aggregate rapidly due to the release of the organic ligand, which is insoluble in water.
Infrared spectra were performed with the KBr technique on a Nicolet iS5 FT-IR spectrophotometer in the range of 4000–400 cm^–1. Elemental analyses (C, H, N) were recorded on a Perkin–Elemer CHN–2400 analyzer. HR-ESI-MS analyses were performed on a maXis Impact Q-TOF mass spectrometer (Bruker Daltonics) or a Xevo G2 Q-TOF mass spectrometer (Waters Corporation, USA), both with an ESI ion source operating in positive-ion mode. Samples were diluted in LC-MS grade acetonitrile. The accurate mass and composition for the molecular ion adducts were calculated using Data Analysis 4.1 software (Bruker, Germany) or MassLynx software (Waters). […] The eluted compounds were monitored in the range 190–400 nm. […]

The test system of the next data set is calf-thymus DNA (ctDNA). In words: Ethidium bromide displacement assay. It is filed as binding. The settings on record: for Ksv (Stern-Volmer constant): ctDNA-EB adduct in PBS buffer, EB 50 μM. The text has this:
Compounds that intercalate between DNA base pairs equally or more strongly than EB replace it from the adduct ctDNA-EB, which results in a noticeable decrease or quenching of the fluorescence emission. […] For both Cu1a and Cu1b, the decrease in the fluorescence intensity of ctDNA-EB with increasing complex concentrations fulfills the linear Stern–Volmer equation (eq 3)[90]: [drawing 6] 3
The apparent binding constants (Kapp) are estimated using eq 4: [drawing 7] 4 (where KEB = 1.0 × 10^7 M^–1, [EB] is the EB concentration (50 μM), [Q50] is the complex concentration at 50% reduction of EB fluorescence intensity, estimated based on the linear Stern–Volmer plot for I^0/I = 2). Kapp is equal to 1.75 × 10^5 M^–1 for Cu1a and 2.35 × 10^6 M^–1 for Cu1b. […] Nevertheless, both Cu(II) complexes show rather moderate ability to replace EB from the adduct with ctDNA.[21]
Ethidium bromide (EB) and calf-thymus DNA (ctDNA) were purchased from Sigma-Aldrich and Thermo Fisher Scientific, respectively. Prior to experiments, a solution containing 10 mg/mL of ctDNA in DNase-free and RNase-free distilled, deionized water was spectroscopically monitored at 260 nm and at 280 nm to determine the concentration and check the purity.
The ethidium bromide (EB) fluorescence displacement assay was carried out using a Hitachi F-7000 spectrofluorometer. An equimolar amount (50 μM) of EB solution was added to ctDNA solution at room temperature, followed by 2 h incubation in the dark. The compound was then titrated into the EB–ctDNA mixture, well mixed, and allowed to stand for 30 min. The concentrations of the complexes varied from 0 to 40 μM.

In data set [2] the test system is normal human primary dermal fibroblasts. In words: MTS cell viability assay, normal fibroblasts. It is filed as cell-based. The settings on record: 48 h of exposure. On the procedure:
The antiproliferative effect of the Cu(II) complexes in tumor and healthy cell lines was assessed through the MTS assay, a colorimetric method that is widely used to evaluate cellular viability, specifically mitochondrial viability.[53],[54] Cellular viability was determined after 48 h exposure to a concentration range (0.1–50 μM) of Cu(II) complexes in three tumor cell lines. […] Additionally, the viability of healthy primary dermal fibroblasts was performed as a comparison of the complexes’ antiproliferative effects in normal cells.
Cellular viability assays were performed using HCT116, HCT116-DoxR, and A2780 cancer cell lines as well as normal human primary fibroblasts. Cells were seeded at a density of 0.75 × 10^5 cells/mL in 96-well plates and incubated at 37 °C with 5% (v/v) CO2 for 24 h. After this incubation period, the copper complexes were accurately weighed and immediately dissolved in 100% (v/v) dimethyl sulfoxide (DMSO). Subsequently, the complexes were diluted to the final concentration using a cell culture medium. The culture medium in each well was replaced with fresh medium containing varying concentrations of the complexes (ranging from 0.01 to 50 μM). Negative controls contained culture medium with 0.1% (v/v) DMSO, and positive controls contained 0.4 μM Dox.
After an additional 48 h of incubation under the same conditions, cellular viability was assessed using the CellTiter 96 Aqueous One Solution Cell Proliferation Assay kit (Promega, Madison, USA). […] The absorbance of formazan, measured at 490 nm in a microplate reader (Tecan Infinite M200, Tecan, Männedorf, Switzerland), is directly proportional to the number of viable cells.[104]
The cell viability versus concentration graphics were analyzed using Prism 8 software (GraphPad) to determine the half-maximal inhibitory concentration (IC50) of each complex for the respective cell line. Additionally, the selective index (SI) for each complex was calculated by dividing the IC50 of human fibroblasts by the IC50 values of the tested cancer cell lines.
In general terms: Tetrazolium assays rely on reduction of a dye to a coloured formazan, in cell work by metabolically active cells.

With `[Cl][Cu-3]12([Cl])[n+]3ccccc3-c3cc(-c4ccc5ccccc5c4)cc([n+]31)-c1cccc[n+]12` [Cu1b], in data set [1], the “stability/solubility in PBS” value is listed as “no solubility issues were observed”. The “Ksv (Stern-Volmer constant)” value in the data set with calf-thymus DNA (ctDNA) is on record as 4.7 × 10^3 M^–1. The “apparent binding constant Kapp” value with calf-thymus DNA (ctDNA) (eq 4, KEB = 1.0 × 10^7 M^–1, [EB] 50 μM) is 2.35 × 10^6 M^–1. Besides, in data set [2], half-maximal inhibition (IC50) was put at 13.3 ± 1 µM.

For `[Cl][Cu-3]12([Cl])[n+]3ccccc3-c3cc(-c4cccc5ccccc45)cc([n+]31)-c1cccc[n+]12` [Cu1a], in data set [1], the “stability/solubility in PBS” value was “no solubility issues were observed”. Moreover, the “Ksv (Stern-Volmer constant)” value in the data set with calf-thymus DNA (ctDNA) is on record as 3.8 × 10^3 M^–1. Besides, the IC50 – broadly, the concentration that gives 50% inhibition – in data set [2] stood at 9.26 ± 0.9 µM.
